# From patent publication US20230219951A1, “PYRIDINE-PYRIMIDINE DERIVATIVE, PREPARATION METHOD THEREFOR AND PHARMACEUTICAL USE THEREOF” (Jiangsu Hengrui Pharmaceuticals Co., Ltd., priority 2020, published 2023)
# Assays:
# [1] = target: T1, interaction between the KRAS protein subtype G12V and the SOS1 protein (Homo sapiens, UniProt Q07889); assay: Inhibition of the interaction between KRAS G12V and SOS1 protein (AlphaLISA/AlphaScreen); format: binding; conditions: KRAS G12V + GST-TEV-SOS1(564-1049) + GDP
# T1 construct: GST-TEV-SOS1(564-1049) (Viva Biotech, SOS1-191010); purchased SOS1: Viva Biotech; KRAS: Shanghai Panchao Biotechnology Co., Ltd. SOS1-191010
# T1 sequence (Q07889 564-1049): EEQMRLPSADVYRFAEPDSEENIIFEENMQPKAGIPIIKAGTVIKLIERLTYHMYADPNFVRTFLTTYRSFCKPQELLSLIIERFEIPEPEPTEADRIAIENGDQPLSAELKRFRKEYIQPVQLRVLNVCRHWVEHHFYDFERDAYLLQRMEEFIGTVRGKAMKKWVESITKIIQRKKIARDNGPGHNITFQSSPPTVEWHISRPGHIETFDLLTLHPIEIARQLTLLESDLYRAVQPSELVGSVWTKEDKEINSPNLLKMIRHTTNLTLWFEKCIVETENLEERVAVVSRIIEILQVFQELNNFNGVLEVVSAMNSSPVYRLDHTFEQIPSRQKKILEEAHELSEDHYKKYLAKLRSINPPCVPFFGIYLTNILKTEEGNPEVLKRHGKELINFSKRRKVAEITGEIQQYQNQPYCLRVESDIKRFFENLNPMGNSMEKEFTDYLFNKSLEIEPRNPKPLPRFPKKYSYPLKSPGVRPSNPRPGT
# In short: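 Biotinylated KRAS G12D or G12V preincubated with SOS1 and GDP, then with compound (10-point 5-fold series from 40 μM) for 30 min at room temperature in PBS, 0.1% BSA, 0.05% Tween 20. Glutathione acceptor/streptavidin donor beads added for 60 min; Alpha signal read and IC50 calculated.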
# [2] = tested on: H358 cells; assay: Inhibition of proliferation of H358 cells (CellTiter-Glo 3D); format: cell-based; conditions: Homo sapiens, NCI-H358, low adsorption plate, 120 h
# In short: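 H358 cells at 1500/well in low-adsorption plates (RPMI, 10% FBS), centrifuged and grown overnight, then exposed 120 h at 37 °C to 9 concentrations, 5-fold dilutions from 10 μM; 0.1% DMSO blank. Luminescence read with CellTiter-Glo 3D; IC50 calculated from the curves.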
# [3] = Pharmacokinetic evaluation in nude mice; format: in vivo; conditions: female, mouse, plasma, po, BALB/C nude mice, intragastric administration, 50 mg/kg
# Description: The drug concentration in the plasma of the test animals (nude mice) at different time points after intragastric administration (i.g.) of compound 18-p1 was determined by using an LC/MS/MS method. The pharmacokinetic behavior of the compound of the present disclosure in nude mice was studied and its pharmacokinetic profile was evaluated.
# Nine BALB/C nude mice, female, intragastric administration, purchased from Beijing Vital River Laboratory Animal Technology Co., Ltd., with animal production license number of SCXK (Shanghai) 2017-0005.
# An amount of compound 18-p1 was weighed, dissolved in 0.5% by volume of CMCNa, and then prepared into a 2.5 mg/mL clear solution with 99.5% normal saline.
# The nude mice were intragastrically administered at a dose of 50.0 mg/kg and a volume of 20.0 mL/kg.
# The compound 18-p1 was administered intragastrically to nude mice, and 0.1 mL of blood was collected from the orbit before administration and 0.25 h, 0.5 h, 1.0 h, 2.0 h, 4.0 h, 6.0 h, 8.0 h, 11.0 h and 24.0 h after administration. The blood was placed in an EDTA-K2 anticoagulation tube and centrifuged at 10,000 rpm for 1 min (4° C.), and plasma was separated out within 1 h and then stored at −20° C. for testing. The process from blood sampling to centrifugation was performed under an ice bath.
# The content of the test compounds at different concentrations in plasma of nude mice after administration was determined: 25 μL of plasma of nude mice at each time point after administration was taken, and 200 μL of acetonitrile (containing 50 μL of internal standard solution camptothecin, 100 ng/mL) was added; the mixture was vortexed for 5 min, and centrifuged for 10 min (4000 r/min). 0.5 μL of supernatant was taken from the plasma sample for LC/MS/MS analysis.
smiles,measurement,setting,value
"Cc1nc(N[C@H](C)c2cccc(C(F)F)c2F)c2cc([C@]3(O)CC[C@@H](O)CC3)c(=O)[nH]c2n1 [Example 18-p1, 4-(((R)-1-(3-(difluoromethyl)-2-fluorophenyl)ethyl)amino)-6-((1s,4S)-1,4-dihydroxycyclohexyl)-2-methylpyrido[2,3-d]pyrimidin-7(8H)-one]",IC50,[1],67 nM
same,IC50,[2],72 nM
same,Vd/F,[3]; read-out: Apparent distribution volume Vz/F,16.6 L/kg
same,AUC(0-t),[3]; read-out: Area under curve AUC0-t,5150 ng·h/mL
same,CL/F,[3]; read-out: Clearance CLz/F,160 mL/min/kg
same,half-life,[3]; read-out: Half-life T½ (converted),1.2 h
same,Cmax,[3]; read-out: Plasma concentration Cmax,1560 ng/mL
